Experimental data taken from patent US9006250B2, “4-amino-6-(heterocyclic)picolinates and 6-amino-2-(heterocyclic)pyrimidine-4-carboxylates and their use as herbicides” (Dow AgroSciences, LLC, priority 2013, dated 2015).

Key:
Test in all cases: Post-Emergent Test II herbicidal activity
Format in all cases: in vivo
[1] = system: ABUTH: velvetleaf (Abutilon theophrasti); settings: post-emergence, 336 h, 14 days, read-out: Visual Growth Reduction (%) 14 Days After Application ABUTH; for pest or weed control at 35 g/ha: 35 g ai/ha; for pest or weed control at 70 g/ha: 70 g ai/ha; for pest or weed control at 140 g/ha: 140 g ai/ha
Protocol: (§1) Post-Emergent Test II: Seeds or nutlets of the desired test plant species were planted in Sun Gro Metro-Mix® 360 planting mixture, which typically has a pH of 6.0 to 6.8 and an organic matter content of about 30 percent, in plastic pots with a surface area of 64 square centimeters. When required to ensure good germination and healthy plants, a fungicide treatment and/or other chemical or physical treatment was applied. The plants were grown for 7-21 d in a greenhouse with an approximate 15 h photoperiod which was maintained at about 23-29° C. during the day and 22-28° C. during the night. Nutrients and water were added on a regular basis and supplemental lighting was provided with overhead metal halide 1000-Watt lamps as necessary. The plants were employed for testing when they reached the first or second true leaf stage.
(§2) A weighed amount, determined by the highest rate to be tested, of each test compound was placed in a 25 mL glass vial and was dissolved in 4 mL of a 97:3 v/v mixture of acetone and DMSO to obtain concentrated stock solutions. […] The concentrated stock solutions obtained were diluted with 20 mL of an aqueous mixture containing acetone, water, isopropyl alcohol, DMSO, Atplus 411F crop oil concentrate, and Triton® X-155 surfactant in a 48.5:39:10:1.5:1.0:0.02 v/v ratio to obtain spray solutions containing the highest application rates. Additional application rates were obtained by serial dilution of 12 mL of the high rate solution into a solution containing 2 mL of 97:3 v/v mixture of acetone and DMSO and 10 mL of an aqueous mixture containing acetone, water, isopropyl alcohol, DMSO, Atplus 411F crop oil concentrate, and Triton X®-155 surfactant in a 48.5:39:10:1.5:1.0:0.02 v/v ratio to obtain ½×, ¼×, ⅛× and 1/16× rates of the high rate. Compound requirements are based upon a 12 mL application volume at a rate of 187 liters per hectare (L/ha). Formulated compounds were applied to the plant material with an overhead Mandel track sprayer equipped with 8002E nozzles calibrated to deliver 187 L/ha over an application area of 0.503 square meters at a spray height of 18 inches […] above the average plant canopy height. Control plants were sprayed in the same manner with the solvent blank.
(§3) The treated plants and control plants were placed in a greenhouse as described above and watered by subirrigation to prevent wash-off of the test compounds. After 14 d, the condition of the test plants as compared with that of the untreated plants was determined visually and scored on a scale of 0 to 100 percent where 0 corresponds to no injury and 100 corresponds to complete kill.

[2] = system: AMARE: redroot pigweed (Amaranthus retroflexus); settings: post-emergence, 336 h, 14 days, read-out: Visual Growth Reduction (%) 14 Days After Application AMARE; for pest or weed control at 35 g/ha: 35 g ai/ha; for pest or weed control at 70 g/ha: 70 g ai/ha; for pest or weed control at 140 g/ha: 140 g ai/ha
Protocol: as §1, §2, §3

[3] = system: BRSNN: oilseed rape, canola (Brassica napus); settings: post-emergence, 336 h, 14 days, read-out: Visual Growth Reduction (%) 14 Days After Application BRSNN; for pest or weed control at 35 g/ha: 35 g ai/ha; for pest or weed control at 70 g/ha: 70 g ai/ha; for pest or weed control at 140 g/ha: 140 g ai/ha
Protocol: as §1, §2, §3

[4] = system: CHEAL: lambsquarters (Chenopodium album); settings: post-emergence, 336 h, 14 days, read-out: Visual Growth Reduction (%) 14 Days After Application CHEAL; for pest or weed control at 35 g/ha: 35 g ai/ha; for pest or weed control at 70 g/ha: 70 g ai/ha; for pest or weed control at 140 g/ha: 140 g ai/ha
Protocol: as §1, §2, §3

[5] = system: CYPES: yellow nutsedge (Cyperus esculentus); settings: post-emergence, 336 h, 14 days, read-out: Visual Growth Reduction (%) 14 Days After Application CYPES; for pest or weed control at 35 g/ha: 35 g ai/ha; for pest or weed control at 70 g/ha: 70 g ai/ha; for pest or weed control at 140 g/ha: 140 g ai/ha
Protocol: as §1, §2, §3

[6] = system: ECHCG: barnyardgrass (Echinochloa crus-galli); settings: post-emergence, 336 h, 14 days, read-out: Visual Growth Reduction (%) 14 Days After Application ECHCG; for pest or weed control at 35 g/ha: 35 g ai/ha; for pest or weed control at 70 g/ha: 70 g ai/ha; for pest or weed control at 140 g/ha: 140 g ai/ha
Protocol: as §1, §2, §3

[7] = system: EPHHL: wild poinsettia (Euphorbia heterophylla); settings: post-emergence, 336 h, 14 days, read-out: Visual Growth Reduction (%) 14 Days After Application EPHHL; for pest or weed control at 35 g/ha: 35 g ai/ha; for pest or weed control at 70 g/ha: 70 g ai/ha; for pest or weed control at 140 g/ha: 140 g ai/ha
Protocol: as §1, §2, §3

[8] = system: HELAN: sunflower (Helianthus annuus); settings: post-emergence, 336 h, 14 days, read-out: Visual Growth Reduction (%) 14 Days After Application HELAN; for pest or weed control at 35 g/ha: 35 g ai/ha; for pest or weed control at 70 g/ha: 70 g ai/ha; for pest or weed control at 140 g/ha: 140 g ai/ha
Protocol: as §1, §2, §3

[9] = system: ORYSA: rice (Oryza sativa); settings: post-emergence, 336 h, 14 days, read-out: Visual Growth Reduction (%) 14 Days After Application ORYSA; for pest or weed control at 35 g/ha: 35 g ai/ha; for pest or weed control at 70 g/ha: 70 g ai/ha; for pest or weed control at 140 g/ha: 140 g ai/ha
Protocol: as §1, §2, §3

[10] = system: SETFA: giant foxtail (Setaria faberi); settings: post-emergence, 336 h, 14 days, read-out: Visual Growth Reduction (%) 14 Days After Application SETFA; for pest or weed control at 35 g/ha: 35 g ai/ha; for pest or weed control at 70 g/ha: 70 g ai/ha; for pest or weed control at 140 g/ha: 140 g ai/ha
Protocol: as §1, §2, §3

[11] = system: TRZAS: wheat, spring (Triticum aestivum); settings: post-emergence, 336 h, 14 days, read-out: Visual Growth Reduction (%) 14 Days After Application TRZAS; for pest or weed control at 35 g/ha: 35 g ai/ha; for pest or weed control at 70 g/ha: 70 g ai/ha; for pest or weed control at 140 g/ha: 140 g ai/ha
Protocol: as §1, §2, §3

[12] = system: ZEAMX: maize, corn (Zea mays); settings: post-emergence, 336 h, 14 days, read-out: Visual Growth Reduction (%) 14 Days After Application ZEAMX; for pest or weed control at 35 g/ha: 35 g ai/ha; for pest or weed control at 70 g/ha: 70 g ai/ha; for pest or weed control at 140 g/ha: 140 g ai/ha
Protocol: as §1, §2, §3

SMILES	pest or weed control at 35 g/ha [1]	pest or weed control at 70 g/ha [1]	pest or weed control at 140 g/ha [1]	pest or weed control at 35 g/ha [2]	pest or weed control at 70 g/ha [2]	pest or weed control at 140 g/ha [2]	pest or weed control at 35 g/ha [3]	pest or weed control at 70 g/ha [3]	pest or weed control at 140 g/ha [3]	pest or weed control at 35 g/ha [4]	pest or weed control at 70 g/ha [4]	pest or weed control at 140 g/ha [4]	pest or weed control at 35 g/ha [5]	pest or weed control at 70 g/ha [5]	pest or weed control at 140 g/ha [5]	pest or weed control at 35 g/ha [6]	pest or weed control at 70 g/ha [6]	pest or weed control at 140 g/ha [6]	pest or weed control at 35 g/ha [7]	pest or weed control at 70 g/ha [7]	further results
Nc1c(F)c(-c2ccc3nsnc3c2)nc(C(=O)O)c1Cl [Compound 12]	85 to 94%	85 to 94%	85 to 94%	95 to 100%	95 to 100%	95 to 100%	75 to 84%	75 to 84%	75 to 84%	85 to 94%	95 to 100%	95 to 100%	0 to 29%	0 to 29%	0 to 29%	75 to 84%	75 to 84%	85 to 94%	95 to 100%	95 to 100%	pest or weed control at 140 g/ha [7]: 95 to 100%; pest or weed control at 35 g/ha [8]: 95 to 100%; pest or weed control at 70 g/ha [8]: 95 to 100%; pest or weed control at 140 g/ha [8]: 95 to 100%; pest or weed control at 35 g/ha [9]: 0 to 29%; pest or weed control at 70 g/ha [9]: 0 to 29%; pest or weed control at 140 g/ha [9]: 0 to 29%; pest or weed control at 35 g/ha [10]: 0 to 29%; pest or weed control at 70 g/ha [10]: 0 to 29%; pest or weed control at 140 g/ha [10]: 75 to 84%; pest or weed control at 35 g/ha [11]: 0 to 29%; pest or weed control at 70 g/ha [11]: 0 to 29%; pest or weed control at 140 g/ha [11]: 0 to 29%; pest or weed control at 35 g/ha [12]: 60 to 74%; pest or weed control at 70 g/ha [12]: 60 to 74%; pest or weed control at 140 g/ha [12]: 75 to 84%
COC(=O)c1nc(-c2ccc3nsnc3c2F)cc(N)c1Cl [Compound 14]	0 to 29%	0 to 29%	0 to 29%	30 to 44%	30 to 44%	45 to 59%	0 to 29%	0 to 29%	0 to 29%	45 to 59%	60 to 74%	75 to 84%	0 to 29%	0 to 29%	0 to 29%	0 to 29%	0 to 29%	0 to 29%	60 to 74%	85 to 94%	pest or weed control at 140 g/ha [7]: 95 to 100%; pest or weed control at 35 g/ha [8]: 0 to 29%; pest or weed control at 70 g/ha [8]: 0 to 29%; pest or weed control at 140 g/ha [8]: 30 to 44%; pest or weed control at 35 g/ha [9]: 0 to 29%; pest or weed control at 70 g/ha [9]: 0 to 29%; pest or weed control at 140 g/ha [9]: 0 to 29%; pest or weed control at 35 g/ha [10]: 0 to 29%; pest or weed control at 70 g/ha [10]: 0 to 29%; pest or weed control at 140 g/ha [10]: 0 to 29%; pest or weed control at 35 g/ha [11]: 0 to 29%; pest or weed control at 70 g/ha [11]: 0 to 29%; pest or weed control at 140 g/ha [11]: 0 to 29%; pest or weed control at 35 g/ha [12]: 0 to 29%; pest or weed control at 70 g/ha [12]: 0 to 29%; pest or weed control at 140 g/ha [12]: 0 to 29%
COC(=O)c1nc(-c2ccc3nonc3c2Cl)cc(N)c1Cl [Compound 18]	0 to 29%	0 to 29%	0 to 29%	95 to 100%	95 to 100%	95 to 100%	60 to 74%	75 to 84%	75 to 84%	75 to 84%	85 to 94%	95 to 100%	0 to 29%	0 to 29%	30 to 44%	0 to 29%	0 to 29%	30 to 44%	0 to 29%	0 to 29%	pest or weed control at 140 g/ha [7]: 30 to 44%; pest or weed control at 35 g/ha [8]: 0 to 29%; pest or weed control at 70 g/ha [8]: 30 to 44%; pest or weed control at 140 g/ha [8]: 60 to 74%; pest or weed control at 35 g/ha [9]: 0 to 29%; pest or weed control at 70 g/ha [9]: 0 to 29%; pest or weed control at 140 g/ha [9]: 0 to 29%; pest or weed control at 35 g/ha [10]: 0 to 29%; pest or weed control at 70 g/ha [10]: 0 to 29%; pest or weed control at 140 g/ha [10]: 0 to 29%; pest or weed control at 35 g/ha [11]: 0 to 29%; pest or weed control at 70 g/ha [11]: 0 to 29%; pest or weed control at 140 g/ha [11]: 0 to 29%; pest or weed control at 35 g/ha [12]: 0 to 29%; pest or weed control at 70 g/ha [12]: 0 to 29%; pest or weed control at 140 g/ha [12]: 0 to 29%
